Assay results taken from patent US20210253518A1, “KINASE INHIBITOR” (NISSAN CHEMICAL CORPORATION, priority 2018, published 2021).
Like-named read-outs stand apart in the source and are kept apart here.

Target: T1, LATS2 (Homo sapiens, UniProt Q9NRM7)
T1 sequence (Q9NRM7 1-1088): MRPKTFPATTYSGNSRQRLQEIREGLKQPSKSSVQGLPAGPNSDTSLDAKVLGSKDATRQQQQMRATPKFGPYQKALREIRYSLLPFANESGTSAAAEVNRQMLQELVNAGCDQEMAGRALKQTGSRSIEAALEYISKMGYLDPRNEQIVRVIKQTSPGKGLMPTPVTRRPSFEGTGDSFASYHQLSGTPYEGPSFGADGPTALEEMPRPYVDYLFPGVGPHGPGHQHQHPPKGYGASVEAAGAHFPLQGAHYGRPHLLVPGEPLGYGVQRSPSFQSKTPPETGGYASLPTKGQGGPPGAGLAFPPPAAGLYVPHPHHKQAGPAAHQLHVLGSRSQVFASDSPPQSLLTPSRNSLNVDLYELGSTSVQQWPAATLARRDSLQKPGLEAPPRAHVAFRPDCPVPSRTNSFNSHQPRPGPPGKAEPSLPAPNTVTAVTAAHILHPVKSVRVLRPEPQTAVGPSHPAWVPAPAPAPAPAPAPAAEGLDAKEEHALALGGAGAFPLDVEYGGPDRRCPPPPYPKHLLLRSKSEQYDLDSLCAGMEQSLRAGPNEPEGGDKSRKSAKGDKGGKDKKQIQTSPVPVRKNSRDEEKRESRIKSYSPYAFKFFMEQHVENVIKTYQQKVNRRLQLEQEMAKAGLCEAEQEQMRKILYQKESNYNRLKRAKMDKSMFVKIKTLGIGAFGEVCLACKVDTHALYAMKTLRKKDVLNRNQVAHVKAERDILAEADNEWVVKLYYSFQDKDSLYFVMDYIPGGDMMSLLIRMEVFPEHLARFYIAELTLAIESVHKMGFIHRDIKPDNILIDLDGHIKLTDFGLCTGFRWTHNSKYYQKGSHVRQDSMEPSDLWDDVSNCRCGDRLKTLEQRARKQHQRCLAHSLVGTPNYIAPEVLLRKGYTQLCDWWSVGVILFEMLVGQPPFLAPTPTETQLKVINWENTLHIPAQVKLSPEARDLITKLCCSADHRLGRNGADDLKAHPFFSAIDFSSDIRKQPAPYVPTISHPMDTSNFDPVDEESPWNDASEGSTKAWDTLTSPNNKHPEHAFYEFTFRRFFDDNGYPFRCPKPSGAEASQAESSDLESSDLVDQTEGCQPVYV
Assay: Off-chip Mobility Shift Assay (MSA method), kinase inhibition
Assay type: biochemical
Settings: for IC50: 10 steps from 10 μM to 0.3 nM; for inhibition at 0.1 µM: read-out: inhibition (%) LATS2
Protocol: For compound k-1:B-1, inhibitory activity evaluation (calculation of 50% inhibitory concentration (IC50)) was performed on 8 kinds of kinases (CGK2, LATS2, MSK1, p70S6K, PKACα, PKACβ, SGK2, SGK3). The activity was measured using the Off-chip Mobility Shift Assay (MSA method) described below. The compound was added such that the test concentration of k-1:B-1 was in 10 steps from the final concentration of 10 μM to 0.3 nM.
As an analysis method of the data, the mean signal of the control well containing all reaction components was set to 0% inhibition, the mean signal without enzyme addition was set to 100% inhibition, and the inhibition rate was calculated from the mean signal of 2 wells of each test substance test. The IC50 value was obtained by approximating a plot based on the test substance concentration and inhibition rate to a 4 parameter logistics curve by using the Excel Solver add-in and by the non-linear least squares method.
(§1) 5 μL of k-1:B-1 solution at 4-fold concentration, 5 μL of substrate/ATP/metal solution at 4-fold concentration, and 10 μL of kinase solution at 2-fold concentration, each prepared with assay buffer (20 mM HEPES, 0.01% Triton X-100, 2 mM DTT, pH 7.5), were mixed in the wells of a polypropylene 384-well plate and reacted at room temperature for 1 or 5 hr. Successively, 70 μL of Termination Buffer (QuickScout Screening Assist MSA; Carna Biosciences) was added to discontinue the reaction. Then, the substrate peptide and the phosphorylated peptide in the reaction solution were separated and quantified by the LabChip system (Perkin Elmer). The kinase reaction was evaluated by the resultant product ratio (P/(P+S)) calculated from the substrate peptide peak height (S) and the phosphorylated peptide peak height (P).
For compounds k-1:H-7, k-1:H-1, k-1:D-1, k-1:J-1, and k-1:B-1, inhibitory rate at 100 nM was calculated on 8 kinds of kinases (CGK2, LATS2, MSK1, p70S6K, PKACα, PKACβ, SGK2, SGK3). The activity was measured using the MSA method. As an analysis method of the data, the mean signal of the control well containing all reaction components was set to 0% inhibition, the mean signal without enzyme addition was set to 100% inhibition, and the inhibition rate was calculated from the mean signal of 2 wells of each test substance test.
as §1, with “a compound” for “k-1:B-1”
For compounds k-1:I-1, k-1:D-1, k-1:J-1, k-1:H-1, k-1:H-7, k-1:B-1, k-5:H-1, k-1:H-3, k-1:D-4 and k-1:I-10, inhibitory activity evaluation (calculation of IC50) was performed on LATS2. The activity was measured using the Off-chip Mobility Shift Assay (MSA method) described below. The compounds were added such that the test concentration of each compound was in 10 steps from the final concentration of 10 μM to 0.3 nM.
5 μL of k-1:I-1, k-1:D-1, k-1:J-1, k-1:H-1, k-1:H-7, k-1:B-1, k-5:H-1, k-1:H-3, k-1:D-4 and k-1:I-10 solutions at 4-fold concentration, 5 μL of substrate/ATP/metal solution at 4-fold concentration, and 10 μL of kinase solution at 2-fold concentration, each prepared with assay buffer (20 mM HEPES, 0.01% Triton X-100, 2 mM DTT, pH 7.5), were mixed in the wells of a polypropylene 384-well plate and reacted at room temperature for 1 or 5 hr. […]

SMILES | IC50 (MSA method) [nM] | inhibition at 0.1 µM (at 100 nM, MSA method) [%] | inhibition at 0.1 µM [%]
CC/C(=N\NC(=O)C(C)Nc1ccccc1)c1ccc(O)c(C)c1O (stereo not shown) [k-1:B-1] | 5.12 | 93.8 | 
CC/C(=N\NC(=O)CNc1cccc(O)c1)c1ccc(O)c(C)c1O [k-1:D-1] | 1.84 |  | 101
CCC(=NNC(=O)CNc1ccccc1)c1ccc(O)c(C)c1O [k-1:H-1] | 12.9 | 92.1 | 
CCC(=NNC(=O)C(CC)Nc1ccccc1)c1ccc(O)c(C)c1O (stereo not shown) [k-1:H-7] | 6.57 | 95.8 | 
CC/C(=N\NC(=O)NCc1cccc(O)c1)c1ccc(O)c(C)c1O [k-1:J-1] | 5.26 |  | 96.2
